From patent US20230002357A1, “7-PYRIMIDINE-2-YL-OXY-INDAZOLE DERIVATIVES AND THEIR USE AS HERBICIDES” (SYNGENTA CROP PROTECTION AG, priority 2019, published 2023) come the findings set out here.

What all share (type): in vivo
Common to all, as to conditions: 250 g/ha, evaluated after 13 days

The subject of assay [1] is IPOHE. Briefly: Pre-emergence Test, glasshouse, IPOHE. In a few lines:
(§1)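 Glasshouse spray test with 1-day (pre-emergence) or 8-day (post-emergence) application timing; rate 250 g/ha unless stated otherwise. Visual percentage damage at 13 days, banded 1 (0-20%) to 5 (81-100%).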

Assay [2] concerns IPOHE. Briefly: Post-emergence Test, glasshouse, IPOHE. In a few lines: as §1
In assay [3] the test system is ABUTH. Briefly: Post-emergence Test, glasshouse, ABUTH. The essentials:
as §1

For assay [4], the system named is ABUTH. Briefly: Pre-emergence Test, glasshouse, ABUTH. In a few lines:
as §1

The test system of assay [5] is Setaria faberi (SETFA). Description: Post-emergence Test, glasshouse, SETFA. The essentials:
as §1

For assay [6], the system named is Amaranthus retoflexus (AMARE). Briefly: Post-emergence Test, glasshouse, AMARE. In a few lines: as §1
Assay [7] concerns Echinochloa crus-galli (ECHCG). Description: Post-emergence Test, glasshouse, ECHCG. The essentials:
as §1

The test system of assay [8] is Echinochloa crus-galli (ECHCG). Briefly: Pre-emergence Test, glasshouse, ECHCG. The essentials:
as §1

For assay [9], the system named is Setaria faberi (SETFA). Description: Pre-emergence Test, glasshouse, SETFA. In a few lines: as §1
The test system of assay [10] is Amaranthus retoflexus (AMARE). Description: Pre-emergence Test, glasshouse, AMARE. The essentials: as §1

Turning to `Cc1cnc(Oc2cccc3c(C(F)(F)F)nn(CCCC(F)(F)F)c23)nc1` [Compound 1.070], the “percentage damage caused to the plant, five-point scale, IPOHE” value (“percentage damage caused … IPOHE” below) with IPOHE [1] was 1 (1=0-20%); with IPOHE [2] it was 3 (3=41-60%). Further, the “percentage damage caused to the plant, five-point scale, ABUTH” value (“percentage damage caused … ABUTH” below) is 5 (5=81-100%) in the assay on ABUTH [3] and 3 (3=41-60%) in the assay on ABUTH [4]. Besides, the “percentage damage caused to the plant, five-point scale, SETFA” value (“percentage damage caused … SETFA” below) with Setaria faberi (SETFA) [5] is listed as 3 (3=41-60%); with Setaria faberi (SETFA) [9], 4 (4=61-80%). The “percentage damage caused to the plant, five-point scale, AMARE” value (“percentage damage caused … AMARE” below) in [6] is listed as 3 (3=41-60%); in assay [10], 5 (5=81-100%). The “percentage damage caused to the plant, five-point scale, ECHCG” value (“percentage damage caused … ECHCG” below) in [7] and in assay [8] was 4 (4=61-80%) throughout.

In the case of `Fc1cnc(Oc2cccc3c(C(F)(F)F)nn(CCCC(F)(F)F)c23)nc1` [Compound 1.071], the results for the “percentage damage caused … IPOHE” value in the assay on IPOHE [1] and in the assay with IPOHE [2] were 2 (2=21-40%) and 4 (4=61-80%), respectively. Besides, the “percentage damage caused … ABUTH” value in the assay with ABUTH [3] is listed as 5 (5=81-100%); in the assay with ABUTH [4], 3 (3=41-60%). The “percentage damage caused … SETFA” value was 4 (4=61-80%) in the assay with Setaria faberi (SETFA) [5] and 5 (5=81-100%) in the assay with Setaria faberi (SETFA) [9]. The “percentage damage caused … AMARE” value in assay [6] and in assay [10] was 5 (5=81-100%) in each case. For the same compound, the “percentage damage caused … ECHCG” value in assay [7] is reported as 4 (4=61-80%); in assay [8], 5 (5=81-100%).

Take `FC(F)(F)CCCn1nnc2c(Cl)ccc(Oc3ncc(Cl)cn3)c21` [Compound 1.072]: the results for the “percentage damage caused … IPOHE” value with IPOHE [1] and in the assay with IPOHE [2] were 1 (1=0-20%) and 3 (3=41-60%), respectively. For the same compound, the “percentage damage caused … ABUTH” value in the assay on ABUTH [3] and in the assay on ABUTH [4] was 1 (1=0-20%) in each case. Besides, the results for the “percentage damage caused … SETFA” value in the assay with Setaria faberi (SETFA) [5] and in the assay on Setaria faberi (SETFA) [9] were 3 (3=41-60%) and 4 (4=61-80%), respectively. In addition, the “percentage damage caused … AMARE” value in assay [6] and in assay [10] was 4 (4=61-80%) in each case. Also, the entries for the “percentage damage caused … ECHCG” value in assay [7] and in [8] were 3 (3=41-60%) and 2 (2=21-40%), respectively.
